Structures are written as SMILES.

The results in this text go back to BindingDB's records for doi:10.1016/j.ejmech.2018.10.038 (Universities of Shandong, 2019).

Data set [1] in a line: Reversal of P-gp-mediated multidrug resistance in human KBV cells assessed as potentiation of paclitaxel-induced cytotoxicity by measuring paclitaxel IC50 at 5 uM after 72 hrs by MTT assay (Rvb = 1353.98 +/- 303.33 nM). Background: Tetrazolium dyes change colour on reduction, which living cells bring about.
The nature of data set [2]: Reversal of P-gp-mediated multidrug resistance in human KBV cells assessed as potentiation of paclitaxel-induced cytotoxicity by measuring paclitaxel IC50 at 10 uM after 72 hrs by MTT assay (Rvb = 1353.98 +/- 303.33 nM).

One may read the IC50 as the concentration that inhibits the measured activity by half. In the case of `CC(C)(O)[C@H]1CC[C@@](C)([C@H]2CC[C@]3(C)[C@@H]2[C@H](O)C[C@@H]2[C@@]4(C)CC[C@H](N)C(C)(C)[C@@H]4CC[C@]23C)O1`, the IC50 was determined as 135 nM in data set [1] and 48 nM in data set [2].
The like results for `CC(C)(C)OC(=O)NCCCCCC(=O)N[C@H]1CC[C@]2(C)[C@H]3C[C@@H](O)[C@@H]4[C@@H]([C@]5(C)CC[C@H](C(C)(C)O)O5)CC[C@@]4(C)[C@]3(C)CC[C@H]2C1(C)C` were, in that order, 48 nM and 28 nM.
